The test system of this assay is L1210 leukemia ip in BDF1 mice, survival T/C. In words: NCI In Vivo Anticancer Drug Screen. Data for tumor model L1210 Leukemia (intraperitoneal) in B6D2F1 (BDF1) mice. The conditions noted are these: endpoint: mean survival time, higher = longer survival. The procedure, abridged: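 Antitumor effect is assessed in tumor-bearing animals. Survival in the compound arm is compared with a vehicle-dosed control arm and expressed as their quotient.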

Setting [1] is: dose: 5.0 mg/kg/injection, schedule: Q01DX001 (ip), vehicle: saline.
Setting [2] is: dose: 100.0 mg/kg/injection, schedule: Q01DX001 (ip), vehicle: carboxymethylcellulose (CMC).
Where [3] appears, read: dose: 200.0 mg/kg/injection, schedule: Q01DX001 (ip), vehicle: carboxymethylcellulose (CMC).
[4] abbreviates: dose: 400.0 mg/kg/injection, schedule: Q01DX001 (ip), vehicle: carboxymethylcellulose (CMC).
The mark [5] stands for this setting: dose: 50.0 mg/kg/injection, schedule: Q01DX001 (ip), vehicle: carboxymethylcellulose (CMC).
[6] abbreviates: dose: 100.0 mg/kg/injection, schedule: Q01DX001 (ip), vehicle: Klucel (hydroxypropylcellulose) (HPC).
Where [7] appears, read: dose: 200.0 mg/kg/injection, schedule: Q01DX001 (ip), vehicle: Klucel (hydroxypropylcellulose) (HPC).
Setting [8] is: dose: 400.0 mg/kg/injection, schedule: Q01DX001 (ip), vehicle: Klucel (hydroxypropylcellulose) (HPC).

Toxic doses and inconclusive results are not listed.

For the molecule `CCC[CH2][Sn]1([CH2]CCC)[O]C(=O)c2ccc(C(=O)O)cc2C(=O)[O]1`, the T/C under setting [1] is 105 % of control.

Consider `CN=C(NC)c1ccc(NC(=O)c2ccc(C(=O)Nc3ccc(C(=NC)NC)cc3)c(N)c2)cc1`, for which the T/C (dose: 0.28 mg/kg/injection, schedule: Q01DX Z (ip), vehicle: water) is 98 % of control; the T/C (dose: 0.56 mg/kg/injection, schedule: Q01DX Z (ip), vehicle: water) is 93 % of control; the T/C (dose: 1.12 mg/kg/injection, schedule: Q01DX Z (ip), vehicle: water) was 170 % of control; the T/C (dose: 2.25 mg/kg/injection, schedule: Q01DX Z (ip), vehicle: water) is 157 % of control; the T/C (dose: 4.5 mg/kg/injection, schedule: Q01DX Z (ip), vehicle: carboxymethylcellulose (CMC)) is 180 % of control; the T/C (dose: 9.0 mg/kg/injection, schedule: Q01DX Z (ip), vehicle: carboxymethylcellulose (CMC)) was 159 % of control. Further, the T/C (dose: 36.0 mg/kg/injection, schedule: Q01DX Z (ip), vehicle: carboxymethylcellulose (CMC)) is 117 % of control; the T/C (dose: 50.0 mg/kg/injection, schedule: Q01DX Z (oral), vehicle: water) is 102 % of control; the T/C (dose: 100.0 mg/kg/injection, schedule: Q01DX Z (oral), vehicle: water) was 105 % of control; the T/C (dose: 200.0 mg/kg/injection, schedule: Q01DX Z (oral), vehicle: water) was 103 % of control; the T/C (dose: 400.0 mg/kg/injection, schedule: Q01DX Z (oral), vehicle: water) was 103 % of control.

Take `Cc1ccc(S/N=C/c2c(O)ccc3ccccc23)cc1`: the T/C reads like this: (dose: 100.0 mg/kg/injection, schedule: Q04DX002 (ip), vehicle: other) 91 % of control; (dose: 200.0 mg/kg/injection, schedule: Q04DX002 (ip), vehicle: other) 102 % of control; (dose: 400.0 mg/kg/injection, schedule: Q04DX002 (ip), vehicle: other) 94 % of control.

Take `Cc1cc(Br)ccc1OCC(=O)O`: the T/C reads like this: (dose: 100.0 mg/kg/injection, schedule: Q04DX003 (ip), vehicle: Klucel (hydroxypropylcellulose) (HPC)) 96 % of control; (dose: 200.0 mg/kg/injection, schedule: Q04DX003 (ip), vehicle: Klucel (hydroxypropylcellulose) (HPC)) 93 % of control; (dose: 400.0 mg/kg/injection, schedule: Q04DX003 (ip), vehicle: Klucel (hydroxypropylcellulose) (HPC)) 98 % of control.

Regarding `O=C(O)CC1COc2ccccc2O1` (stereo unspecified), the T/C under setting [2] is 91 % of control, the T/C under setting [3] is 105 % of control and the T/C under setting [4] was 94 % of control.

On to `Nc1cc2ncccc2c2ncccc12`, for which the T/C (dose: 75.0 mg/kg/injection, schedule: Q01DX001 (ip), vehicle: saline) is 107 % of control and the T/C (dose: 150.0 mg/kg/injection, schedule: Q01DX001 (ip), vehicle: saline) is 102 % of control.

As for `Cc1cc([N+](C)(C)C)cc(C)c1C#[N+][O-]`, the T/C is 104 % of control (dose: 1.25 mg/kg/injection, schedule: Q01DX001 (ip), vehicle: saline); 93 % of control (dose: 2.5 mg/kg/injection, schedule: Q01DX001 (ip), vehicle: saline); 102 % of control under setting [1]; 102 % of control (dose: 10.0 mg/kg/injection, schedule: Q01DX001 (ip), vehicle: saline).

On to `COCCCn1nnc2ccccc2c1=O`, for which the T/C was 98 % of control (dose: 100.0 mg/kg/injection, schedule: Q04DX003 (ip), vehicle: saline); 93 % of control (dose: 200.0 mg/kg/injection, schedule: Q04DX003 (ip), vehicle: saline); 100 % of control (dose: 400.0 mg/kg/injection, schedule: Q04DX003 (ip), vehicle: saline).

Turning to `Cc1c[n+]([O-])ccc1N=NN(C)c1ccccc1C`, the T/C reads like this: (dose: 18.75 mg/kg/injection, schedule: Q04DX002 (ip), vehicle: saline with Tween-80) 102 % of control; (dose: 37.5 mg/kg/injection, schedule: Q04DX002 (ip), vehicle: saline with Tween-80) 105 % of control; (dose: 75.0 mg/kg/injection, schedule: Q04DX002 (ip), vehicle: saline with Tween-80) 102 % of control; (dose: 200.0 mg/kg/injection, schedule: Q04DX002 (ip), vehicle: saline with Tween-80) 86 % of control.

`S=C(S)N1CCOCC1.[Cu+2]`: the T/C under setting [5] was 88 % of control and the T/C under setting [2] is 107 % of control.

As for `CC1CCCC(C)N1NC1=NCCO1` (stereo unspecified), the T/C was 96 % of control (dose: 25.0 mg/kg/injection, schedule: Q01DX009 (ip), vehicle: saline with Tween-80); 98 % of control (dose: 50.0 mg/kg/injection, schedule: Q01DX009 (ip), vehicle: saline with Tween-80); 97 % of control (dose: 100.0 mg/kg/injection, schedule: Q01DX009 (ip), vehicle: saline with Tween-80); 100 % of control (dose: 100.0 mg/kg/injection, schedule: Q04DX003 (ip), vehicle: saline with Tween-80).

In the case of `CC(=O)CSC(=S)OC(C)C`, the T/C by setting is: (dose: 100.0 mg/kg/injection, schedule: Q04DX002 (ip), vehicle: saline) 112 % of control; (dose: 200.0 mg/kg/injection, schedule: Q04DX002 (ip), vehicle: saline) 94 % of control; (dose: 400.0 mg/kg/injection, schedule: Q04DX002 (ip), vehicle: saline) 105 % of control.

Regarding `CCCCS(=O)(=O)N1CCCC(C)C1` (stereo unspecified), the T/C is 100 % of control (dose: 100.0 mg/kg/injection, schedule: Q04DX002 (ip), vehicle: Klucel (hydroxypropylcellulose) (HPC)); 107 % of control (dose: 200.0 mg/kg/injection, schedule: Q04DX002 (ip), vehicle: Klucel (hydroxypropylcellulose) (HPC)); 103 % of control (dose: 400.0 mg/kg/injection, schedule: Q04DX002 (ip), vehicle: Klucel (hydroxypropylcellulose) (HPC)).

As for `CC(C)CC(C)c1c(N)nc(N)[nH]c1=O` (stereo unspecified), the T/C under setting [6] is 97 % of control, the T/C under setting [7] was 103 % of control and the T/C under setting [8] was 109 % of control.

With `O=C(SSC(=O)c1ccccc1)c1ccccc1`, the T/C under setting [5] was 96 % of control, the T/C under setting [2] was 94 % of control, the T/C under setting [3] is 90 % of control and the T/C under setting [4] is 107 % of control.

Consider `CCCCCCc1cc(N=Nc2ccc(S(N)(=O)=O)cc2)c(O)cc1O`, for which the T/C is, setting by setting: (dose: 100.0 mg/kg/injection, schedule: Q01DX001 (ip), vehicle: saline) 97 % of control; (dose: 200.0 mg/kg/injection, schedule: Q01DX001 (ip), vehicle: saline) 102 % of control; (dose: 400.0 mg/kg/injection, schedule: Q01DX001 (ip), vehicle: saline) 96 % of control.

With `CCOC(=O)CCCl`, the T/C is, setting by setting: (dose: 75.0 mg/kg/injection, schedule: Q01DX009 (ip), vehicle: Klucel (hydroxypropylcellulose) (HPC)) 94 % of control; (dose: 75.0 mg/kg/injection, schedule: Q04DX003 (ip), vehicle: saline) 117 % of control; (dose: 150.0 mg/kg/injection, schedule: Q01DX009 (ip), vehicle: Klucel (hydroxypropylcellulose) (HPC)) 96 % of control; (dose: 300.0 mg/kg/injection, schedule: Q01DX009 (ip), vehicle: Klucel (hydroxypropylcellulose) (HPC)) 97 % of control; (dose: 300.0 mg/kg/injection, schedule: Q04DX003 (ip), vehicle: saline) 97 % of control.

With `c1ccc(C2C(c3ccccc3)N2CCNC2=NCCN2)cc1` (stereo unspecified), the T/C by setting is: (dose: 12.5 mg/kg/injection, schedule: Q01DX009 (ip), vehicle: Klucel (hydroxypropylcellulose) (HPC)) 91 % of control; (dose: 25.0 mg/kg/injection, schedule: Q01DX009 (ip), vehicle: Klucel (hydroxypropylcellulose) (HPC)) 102 % of control; (dose: 50.0 mg/kg/injection, schedule: Q01DX009 (ip), vehicle: Klucel (hydroxypropylcellulose) (HPC)) 91 % of control.

Turning to `COc1ccc(N=C(C)CC(C)=O)cc1`, the T/C under setting [6] was 101 % of control; the T/C (dose: 100.0 mg/kg/injection, schedule: Q01DX009 (ip), vehicle: Klucel (hydroxypropylcellulose) (HPC)) is 108 % of control; the T/C under setting [7] is 103 % of control; the T/C (dose: 200.0 mg/kg/injection, schedule: Q01DX009 (ip), vehicle: Klucel (hydroxypropylcellulose) (HPC)) was 97 % of control; the T/C under setting [8] was 101 % of control; the T/C (dose: 400.0 mg/kg/injection, schedule: Q01DX009 (ip), vehicle: Klucel (hydroxypropylcellulose) (HPC)) is 102 % of control.

For the molecule `CC(=O)N(C)C1=C(Sc2ccc(C)cc2)C(=O)c2ccccc2C1=O`, where the note is “dose: 150.0 mg/kg/injection, schedule: Q01DX001 (ip), vehicle: carboxymethylcellulose (CMC)”, the T/C was 93 % of control.

Values taken from PubChem BioAssay AID248 (DTP/NCI, 2004).
